Source: patent US9513294B2, “Megastokes amino-triazolyl-BODIPY compounds and applications to live neuron staining and human serum albumin FA1 drug site probing” (National University of Singapore, priority 2012, dated 2016)

Columns and labels:
[1] = Quantum yield measurements versus Acridine Yellow in EtOH; assay type: physicochemical; settings: BDCCA library, Table 4; excitation 460 nm
In short: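 Fluorescence quantum yield is relative to Acridine Yellow in EtOH (Φ 0.47), with excitation at 460 nm. Integrated emission at 510–700 nm was corrected for absorbance at the excitation wavelength and for solvent refractive index.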

[2] = Absorbance and fluorescence emission spectra (SpectraMax M2); assay type: physicochemical; settings: BDCCA library, Table 4
In short: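 Absorbance and emission maxima measured on a SpectraMax M2 spectrophotometer, which also gave quantum yield data; analysis in GraphPrism.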

Row | SMILES | φ (quantum yield) [1] | λmax Absorp. [2] | λmax Emission [2]
1 | O=C(CCl)Nc1ccc(C2=C3C=CC(N4CCCCC4)=[N+]3[B-](F)(F)n3c2ccc3-n2cc(COc3ccccc3)nn2)cc1 [BDCCA-17] | 0.7% | 464 nm | 584 nm
2 | CN(Cc1ccccc1)Cc1cn(-c2ccc3n2[B-](F)(F)[N+]2=C(N4CCCCC4)C=CC2=C3c2ccc(NC(=O)CCl)cc2)nn1 [BDCCA-18] | 0.7% | 465 nm | 587 nm
3 | O=C(CCl)Nc1ccc(C2=C3C=CC(N4CCCCC4)=[N+]3[B-](F)(F)n3c2ccc3-n2cc(CCc3ccccc3)nn2)cc1 [BDCCA-19] | 1.0% | 466 nm | 578 nm
4 | COc1ccc2cc(-c3cn(-c4ccc5n4[B-](F)(F)[N+]4=C(N6CCCCC6)C=CC4=C5c4ccc(NC(=O)CCl)cc4)nn3)ccc2c1 [BDCCA-22] | 1.1% | 464 nm | 586 nm
5 | O=C(CCl)Nc1ccc(C2=C3C=CC(N4CCCCC4)=[N+]3[B-](F)(F)n3c2ccc3-n2cc(-c3ccc(-c4ccccc4)cc3)nn2)cc1 [BDCCA-23] | 1.2% | 464 nm | 575 nm
6 | O=C(CCl)Nc1ccc(C2=C3C=CC(N4CCCCC4)=[N+]3[B-](F)(F)n3c2ccc3-n2cc(-c3ccc(F)cc3F)nn2)cc1 [BDCCA-26] | 1.3% | 465 nm | 568 nm
7 | COc1cccc(-c2cn(-c3ccc4n3[B-](F)(F)[N+]3=C(N5CCCCC5)C=CC3=C4c3ccc(NC(=O)CCl)cc3)nn2)c1 [BDCCA-27] | 2.3% | 463 nm | 552 nm
8 | CCCCCc1ccc(-c2cn(-c3ccc4n3[B-](F)(F)[N+]3=C(N5CCCCC5)C=CC3=C4c3ccc(NC(=O)CCl)cc3)nn2)cc1 [BDCCA-29] | 1.7% | 464 nm | 548 nm
9 | O=C(CCl)Nc1ccc(C2=C3C=CC(N4CCCCC4)=[N+]3[B-](F)(F)n3c2ccc3-n2cc(-c3cc(C(F)(F)F)cc(C(F)(F)F)c3)nn2)cc1 [BDCCA-30] | 2.6% | 458 nm | 556 nm
10 | O=C(CCl)Nc1ccc(C2=C3C=CC(N4CCCCC4)=[N+]3[B-](F)(F)n3c2ccc3-n2cc(-c3cccc(F)c3)nn2)cc1 [BDCCA-31] | 1.0% | 462 nm | 568 nm
11 | CC(C)CCc1cn(-c2ccc3n2[B-](F)(F)[N+]2=C(N4CCCCC4)C=CC2=C3c2ccc(NC(=O)CCl)cc2)nn1 [BDCCA-36] | 0.5% | 467 nm | 584 nm
12 | O=C(CCl)Nc1ccc(C2=C3C=CC(N4CCCCC4)=[N+]3[B-](F)(F)n3c2ccc3-n2cc(C3=CCCCC3)nn2)cc1 [BDCCA-37] | 1.7% | 465 nm | 565 nm
13 | CCCCc1cn(-c2ccc3n2[B-](F)(F)[N+]2=C(N4CCCCC4)C=CC2=C3c2ccc(NC(=O)CCl)cc2)nn1 [BDCCA-42] | 1.3% | 467 nm | 577 nm
14 | CC(C)Cc1cn(-c2ccc3n2[B-](F)(F)[N+]2=C(N4CCCCC4)C=CC2=C3c2ccc(NC(=O)CCl)cc2)nn1 [BDCCA-43] | 0.8% | 466 nm | 583 nm
